What was measured:
[1] = system: primary polyclonal human Vγ9/Vδ2 T cells; assay: TNFα release assay (cytokine release assay); format: cell-based; conditions: T-cell, 24 h, read-out: in vitro EC50
Protocol: Cells (primary polyclonal human Vγ9/Vδ2 T cells which had been expanded in vitro and stored frozen at day 12-15 of expansion) are thawed and rinsed them twice and centrifuged. Upon elimination of supernatant and resuspension of cells, cells are incubated for 24h at 37° C. in the presence of IL2 100 UI/ml (fmal concentration). Cells are washed and centrifuged, following which the supernatant is eliminated and the cells are resuspended and adjusted to the adequate final concentration. Cells are added to the wells of a 96-well plate.
To one row of wells are added a standard diluation series of 3-(bromomethyl)-3-butanol-1-yl-diphosphate (BrHPP). Compounds to be tested, in this case CHDMAPP and HDMAPP are added to experimental wells, after several dilutions.
Full plates are incubated 24 hours at 37° C. for stimulation of the γδ cells with the BrHPP standard as well as isopentenyl pyrophosphate (IPP) for comparison, and test compounds CHDMAPP and HDMAPP. After this time, 100 μl of culture supernatant is taken for TNFα dosage. Measurement of the released TNFa dosageis performed as described by the manufacturer's instruction in the TNFa enzyme immunoassay kit (ref. 11121, Immunotech-Beckman Coulter). OD at 405 nm is read, the OD being proportional to the concentration of released TNFα in the culture supernatant. The data are processed with the Excel software to compare concentration of test compound versus concentration of TNFα and for the calculation of the EC50 for each test compound.

[2] = system: IFNγ, TNF-alpha, IL2, IL4, IL5 and IL6; format: in vivo, monkeys
γδ T cells = assay: in vivo Vγ9/Vδ2+ T cell stimulation in cynomolgus monkeys
Vγ9/Vδ2+ T cell = assay: in vitro Vγ9/Vδ2+ T cell stimulation; format: cell-based

Molecule `CC(O)(CBr)CCOP(=O)(O)OP(=O)(O)O` (stereo not drawn) [BrHPP, 3-(bromomethyl)-3-butanol-1-yl-diphosphate, reference compound] has an EC50 [1] of ~18.6 nM.
`C/C(=C\CCP(=O)(O)OP(=O)(O)O)CO` [CHDMAPP, (E)-5-hydroxy-4-methylpent-3-enyl pyrophosphonate] was tested, and the “cytokine production (IFNγ) over that observed with the phosphoantigen alone” value ([2]; cytokines known to be induced by phosphoantigen alone (IFNγ)) was “large increase of cytokine production”, the “cytokine production over that observed with the Hybrid-I formulation alone” value ([2]; serum cytokines, 8 monkeys per group, FIG. 3) was “large and statistically significant increase in cytokine production” and the EC50 [1] was ~0.873 nM.
`C/C(=C\COP(=O)(O)OP(=O)(O)O)CO` [HDMAPP, (E)-4-Hydroxy-3-methylbut-2-enyl diphosphate] was tested, and the EC50 (γδ T cells; Macaca fascicularis, T-cell, in cynomolgus monkeys, dosage studies described in co-pending PCT/IB2003/006375) was ~0.005 nM, the “activation of γδ T cells” value (γδ T cells; administration to cynomolgus monkeys, very low doses) was “strong activation of γδ T cells” and the EC50 [1] was ~0.758 nM. The EC50 (Vγ9/Vδ2+ T cell) was ~0.6 nM.
Work on `C=C(C)CCO[P@@](=O)(O)OP(=O)(O)O` [IPP, isopentenyl pyrophosphate, reference compound] yielded an EC50 [1] of ~31000 nM.

Source: patent US20070218086A1, “Adjuvant Composition and Methods for Its Use” (priority 2004, published 2007)
